Data from patent US20130045995A1 (priority 2010, published 2013).
Like-named read-outs stand apart in the source and are kept apart here.

Key:
[1] = tested on: Phytophthora infestans; assay type: in vivo; conditions: 500 ppm of active ingredient; tomato, preventive; evaluated 7 days after inoculation
[2] = Measurement of logP values by HPLC on reversed phase columns (EEC directive 79/831 Annex V.A8); assay type: physicochemical; conditions: for Log P: pH 2.7, 0.1% formic acid in water / acetonitrile; for chromatographic logP: reversed-phase HPLC column
Method: Measurement of logP values was performed according EEC directive 79/831 Annex V.A8 by HPLC (High Performance Liquid Chromatography) on reversed phase columns with the following methods: […]

[3] = tested on: Plasmopara viticola; experiment: Plasmopara test (grapevines) / preventive; assay type: in vivo; conditions: 100 ppm of active ingredient, evaluated 6 days after inoculation
Method: • Plasmopara Test (Grapevines)/Preventive
Solvent: 24.5 parts by weight of acetone • 24.5 parts by weight of dimethylacetamide
Emulsifier: 1 part by weight of alkylaryl polyglycol ether
To produce a suitable preparation of active compound, 1 part by weight of active compound is mixed with the stated amounts of solvent and emulsifier, and the concentrate is diluted with water to the desired concentration.
To test for preventive activity, young plants are sprayed with the preparation of active compound at the stated rate of application. After the spray coating has dried on, the plants are inoculated with an aqueous spore suspension of Plasmopara viticola and then remain for 1 day in an incubation cabinet at approximately 20° C. and a relative atmospheric humidity of 100%. The plant is subsequently placed for 4 days in a greenhouse at approximately 21° C. and a relative atmospheric humidity of approximately 90%. The plants are then misted and placed for 1 day in an incubation cabinet.
The test is evaluated 6 days after the inoculation. 0% means an efficacy which corresponds to that of the untreated control, while an efficacy of 100% means that no disease is observed.

SMILES	efficacy [1] [%]	other results
Cc1snnc1C(=NOCc1csc(NC(=O)C2CC(=O)c3cc(F)ccc3O2)n1)c1ccccc1 (mixture of isomers) [Example 7]	98	Log P ([2]; HPLC): 3.72
Cc1snnc1C(=NOCc1cccc(NC(=O)C2COc3ccccc3O2)n1)c1ccccc1 (mixture of isomers) [Example 10]	95	efficacy [3]: 98%
Cc1snnc1C(=NOCc1cccc(NC(=O)C2CC(=O)c3cc(F)ccc3O2)n1)c1ccccc1 (mixture of isomers) [Example 16]	95	–
Cc1snnc1C(=NOCc1csc(NC(=O)C2CCc3ccccc3O2)n1)c1ccccc1 (racemic) [Example 2]	100	–
Cc1snnc1C(=NOCc1csc(NC(=O)C2Cc3ccccc3O2)n1)c1ccccc1 (racemic) [Example 3]	100	–
Cc1cccc2c1OC(C(=O)Nc1nc(CON=C(c3ccccc3)c3nnsc3C)cs1)CO2 (racemic) [Example 5]	100	–
Cc1snnc1C(=NOCc1csc(NC(=O)C2COc3ccccc3O2)n1)c1ccccc1 (racemic) [Example 6]	100	efficacy [3]: 77%
Cc1cccc2c1OC(C(=O)Nc1cccc(CON=C(c3ccccc3)c3nnsc3C)n1)CO2 (racemic) [Example 12]	95	Log P ([2]; HPLC): 4.73
Cc1snnc1C(=NOCc1cccc(NC(=O)C2COc3ccccc3O2)n1)c1ccccc1 (racemic) [Example 13]	100	–
Cc1snnc1C(=NOCc1cccc(NC(=O)C2CCc3ccccc3O2)n1)c1ccccc1 (racemic) [Example 14]	97	Log P ([2]; HPLC): 4.66
Cc1snnc1C(=NOCc1cccc(NC(=O)C2Cc3ccccc3O2)n1)c1ccccc1 (racemic) [Example 15]	100	efficacy [3]: 74%
Cc1snnc1C(=NOCc1csc(NC(=O)C2CN(C)c3ccccc3O2)n1)c1ccccc1 (racemic) [Example 17]	97	–
Cc1snnc1C(=NOCc1cccc(NC(=O)C2CN(C)c3ccccc3O2)n1)c1ccccc1 (racemic) [Example 18]	100	Log P ([2]; HPLC): 4.56
Cc1snnc1C(=NOCc1csc(NC(=O)C2COc3ccccc3O2)n1)c1ccccc1 (stereo not drawn) [Example 1, N-{4-[({[(5-methyl-1,2,3-thiadiazol-4-yl)(phenyl)methylene]amino}oxy)methyl]-1,3-thiazol-2-yl}-2,3-dihydro-1,4-benzodioxine-2-carboxamide]	100	efficacy [3]: 94%; chromatographic logP ([2]; pH 2.7, [I1] main isomer, HPLC, pH 2.7, 0.1% formic acid, read-out: Log P): 3.99; chromatographic logP ([2]; pH 2.7, mixture of Z and E diastereoisomers, two values, read-out: logP(HCOOH)): 3.99
